Measurements taken from ChEMBL document CHEMBL3576831, “Discovery of a Selective TRPM8 Antagonist with Clinical Efficacy in Cold-Related Pain” (ACS Med Chem Lett, 2015).

Legend:
[1] = biological target: Voltage-gated inwardly rectifying potassium channel KCNH2 (Homo sapiens, UniProt Q12809); experiment: Inhibition of dofetilide binding to human ERG
[2] = biological target: Transient receptor potential cation channel subfamily M member 8 (Homo sapiens, UniProt Q7Z2W7); experiment: Antagonist activity against human recombinant TRPM8 expressed in CHO T-rex cells assessed as inhibition of WS12-induced calcium response pre-incubated for 20 mins before WS12 addition; type: cell-based
Chain of Transient receptor potential cation channel subfamily M member 8 (Q7Z2W7 whole entry): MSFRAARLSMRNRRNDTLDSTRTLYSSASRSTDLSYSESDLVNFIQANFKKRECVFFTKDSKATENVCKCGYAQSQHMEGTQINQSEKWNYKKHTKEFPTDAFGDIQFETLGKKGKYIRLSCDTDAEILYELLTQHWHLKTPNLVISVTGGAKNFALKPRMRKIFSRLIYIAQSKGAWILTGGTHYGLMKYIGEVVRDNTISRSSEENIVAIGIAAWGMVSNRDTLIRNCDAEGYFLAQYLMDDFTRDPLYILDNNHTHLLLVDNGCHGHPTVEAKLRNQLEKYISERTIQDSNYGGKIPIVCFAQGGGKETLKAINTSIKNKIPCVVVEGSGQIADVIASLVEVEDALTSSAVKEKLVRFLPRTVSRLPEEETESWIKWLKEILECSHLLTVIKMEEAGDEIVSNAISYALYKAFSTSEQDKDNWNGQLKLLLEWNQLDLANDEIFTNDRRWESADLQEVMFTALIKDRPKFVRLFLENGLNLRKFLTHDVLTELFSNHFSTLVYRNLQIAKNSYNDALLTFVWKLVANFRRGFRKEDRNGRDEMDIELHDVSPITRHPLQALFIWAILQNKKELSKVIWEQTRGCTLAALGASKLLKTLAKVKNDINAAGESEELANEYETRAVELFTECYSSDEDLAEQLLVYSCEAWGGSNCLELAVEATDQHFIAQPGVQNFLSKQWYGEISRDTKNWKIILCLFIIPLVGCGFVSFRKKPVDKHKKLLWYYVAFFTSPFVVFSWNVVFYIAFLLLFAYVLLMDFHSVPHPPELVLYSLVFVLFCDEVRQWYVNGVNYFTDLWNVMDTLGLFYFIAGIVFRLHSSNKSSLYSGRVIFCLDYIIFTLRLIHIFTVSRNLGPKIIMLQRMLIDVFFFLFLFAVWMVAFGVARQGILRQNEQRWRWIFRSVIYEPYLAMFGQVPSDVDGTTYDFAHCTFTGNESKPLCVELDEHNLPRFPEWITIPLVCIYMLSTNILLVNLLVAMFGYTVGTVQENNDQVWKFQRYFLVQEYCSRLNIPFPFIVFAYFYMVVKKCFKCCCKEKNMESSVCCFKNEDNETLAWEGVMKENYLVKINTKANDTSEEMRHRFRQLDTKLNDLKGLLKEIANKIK

[3] = tested on: Liver microsome; experiment: Intrinsic clearance in rat liver microsomes; type: ADME
[4] = tested on: Hepatocyte; experiment: Intrinsic clearance in human hepatocytes assessed per million cells; type: ADME, cell-based
[5] = Lipophilicity, log D of the compound; type: physicochemical; conditions: octanol/water
[6] = Intrinsic clearance in human liver microsomes; type: ADME; conditions: read-out: CLH

Chain of Voltage-gated inwardly rectifying potassium channel KCNH2 (Q12809 whole entry): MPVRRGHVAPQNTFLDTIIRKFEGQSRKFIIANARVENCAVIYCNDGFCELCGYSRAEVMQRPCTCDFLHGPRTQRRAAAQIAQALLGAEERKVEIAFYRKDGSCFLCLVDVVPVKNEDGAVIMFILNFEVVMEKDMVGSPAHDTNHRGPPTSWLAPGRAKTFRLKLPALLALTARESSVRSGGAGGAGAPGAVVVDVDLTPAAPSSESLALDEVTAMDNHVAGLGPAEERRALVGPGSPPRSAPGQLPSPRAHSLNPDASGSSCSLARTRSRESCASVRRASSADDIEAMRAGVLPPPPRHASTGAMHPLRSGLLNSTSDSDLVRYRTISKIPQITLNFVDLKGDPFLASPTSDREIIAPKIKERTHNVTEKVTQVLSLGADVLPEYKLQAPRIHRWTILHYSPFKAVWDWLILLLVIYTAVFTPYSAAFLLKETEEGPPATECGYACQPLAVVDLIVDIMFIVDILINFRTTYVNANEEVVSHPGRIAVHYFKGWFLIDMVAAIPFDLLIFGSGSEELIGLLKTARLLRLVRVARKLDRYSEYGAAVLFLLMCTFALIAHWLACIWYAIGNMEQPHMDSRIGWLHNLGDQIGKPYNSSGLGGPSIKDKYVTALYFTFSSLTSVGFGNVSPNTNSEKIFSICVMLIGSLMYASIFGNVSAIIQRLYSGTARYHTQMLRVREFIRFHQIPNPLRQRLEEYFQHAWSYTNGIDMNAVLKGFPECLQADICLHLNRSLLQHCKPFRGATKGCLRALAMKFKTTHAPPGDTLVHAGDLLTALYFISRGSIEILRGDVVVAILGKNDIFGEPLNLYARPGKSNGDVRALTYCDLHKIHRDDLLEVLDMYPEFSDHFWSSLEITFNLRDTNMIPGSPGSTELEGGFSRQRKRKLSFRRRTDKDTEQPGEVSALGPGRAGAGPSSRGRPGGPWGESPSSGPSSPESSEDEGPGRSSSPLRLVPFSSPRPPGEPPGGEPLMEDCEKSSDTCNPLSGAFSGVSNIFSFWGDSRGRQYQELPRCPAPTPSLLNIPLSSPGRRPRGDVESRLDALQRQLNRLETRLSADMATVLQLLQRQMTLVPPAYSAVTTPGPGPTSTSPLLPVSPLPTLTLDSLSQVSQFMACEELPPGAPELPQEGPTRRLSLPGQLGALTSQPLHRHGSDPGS

SMILES	IC50 [2] [nM]	other results
C[C@H](c1ccc(F)cc1)N(Cc1cccc(C(=O)O)c1)C(=O)c1cc2ccccc2nn1	340	microsomal CLint [3]: 76 µL/min/mg; microsomal CLint [6]: < 8 µL/min/mg
CC(c1ccc(F)cc1)N(Cc1cccc(C(=O)O)c1)C(=O)c1ccc2c(c1)CCO2 (racemic)	3620	–
Cc1ccc(CN(C(=O)c2cnc3ccccc3c2)[C@H](C)c2ccc(F)cc2)cc1C(=O)O	> 7820	–
C[C@H](c1ccc(F)cc1)N(Cc1cccc(C(=O)O)c1)C(=O)c1cccc(-c2ccccc2)c1	837	–
C[C@H](c1ccc(F)cc1)N(Cc1cccc(C(=O)O)c1)C(=O)c1cc2cc[nH]c2cn1	951	–
C[C@H](c1ccc(F)cc1)N(Cc1cc(C(=O)O)ccc1F)C(=O)c1cnc2ccccc2c1	446	–
O=C(O)c1cccc(CN(Cc2ccc(F)cc2)C(=O)c2cnc3ccccc3c2)c1	> 9360	–
C[C@H](c1ccc(F)cc1)N(Cc1cccc(CC(=O)O)c1)C(=O)c1cnc2ccccc2c1	> 3250	–
O=C(O)c1cccc(CN(C(=O)c2cnc3ccccc3c2)[C@H](CO)c2ccccc2)c1	> 6860	–

Compounds with a lower IC50 [2], results first:

IC50 [2] [nM]	SMILES	other results
328	CC[C@H](c1ccc(C)o1)N(Cc1cccc(C(=O)O)c1)C(=O)c1cnc2ccccc2c1	–
307	C[C@H](c1ccc(F)cc1)N(Cc1cccc(C(=O)O)c1)C(=O)c1cn2ccccc2n1	Ki [1]: > 9180 nM; microsomal CLint [3]: 113 µL/min/mg; logD [5]: 0.6
288	C[C@H](c1ccc(F)cc1F)N(Cc1cccc(C(=O)O)c1)C(=O)c1cnc2ccccc2c1	–
145	C[C@H](c1ccc(F)cc1)N(Cc1cccc(C(=O)O)c1)C(=O)c1cc2ccccc2s1	–
94	C[C@H](c1ccc(F)cc1)N(Cc1cccc(C(=O)O)c1)C(=O)c1cc2ccccn2n1	Ki [1]: > 9180 nM; microsomal CLint [3]: 325 µL/min/mg; hepatocyte intrinsic clearance [4]: 23 µL/min/million cells; logD [5]: 0.9; microsomal CLint [6]: 42 µL/min/mg
90	C[C@H](c1ccc(F)cc1)N(Cc1cccc(C(=O)O)c1)C(=O)c1cc2ccccc2cn1	Ki [1]: > 9180 nM; microsomal CLint [3]: 166 µL/min/mg; hepatocyte intrinsic clearance [4]: 21 µL/min/million cells; logD [5]: 1.1; microsomal CLint [6]: 16 µL/min/mg
